From ChEMBL document CHEMBL1150933, “Cytotoxic sterols from the soft coral Nephthea erecta” (1998)
Values after ≈ are worked out from the molar mass of the structure shown.

What was measured:
Assay type in all cases: functional
KB = assay: Cytotoxicity against human KB cells after 3 days by MTT assay; settings: 72 h, read-out: ED50 (the source's name)
A549 = assay: Cytotoxicity against human A549 cells after 6 days by MTT assay; settings: A549, 144 h, read-out: ED50 (the source's name)
HT-29 = assay: Cytotoxicity against human HT-29 cells after 6 days by MTT assay; settings: HT-29, 144 h, read-out: ED50 (the source's name)
P388 = assay: Cytotoxicity against mouse P388 cells after 3 days by MTT assay; settings: P388, 72 h, read-out: ED50 (the source's name)

SMILES	EC50 (KB)	EC50 (A549)	EC50 (HT-29)	EC50 (P388)
C=C(CC[C@@H](C)[C@H]1CC[C@H]2[C@@H]3[C@@H](OC(C)=O)C=C4C[C@@H](O)CC[C@]4(CO)[C@H]3CC[C@]12C)C(C)C	0.38 µg/mL (≈ 0.804 µM)	0.81 µg/mL (≈ 1.71 µM)	0.87 µg/mL (≈ 1.84 µM)	0.42 µg/mL (≈ 0.888 µM)
C=C(CC[C@@H](C)[C@H]1C[C@@H](O)[C@H]2[C@@H]3CC=C4C[C@@H](O)CC[C@]4(CO)[C@H]3CC[C@@]21C)C(C)C	0.6 µg/mL (≈ 1.39 µM)	0.41 µg/mL (≈ 0.952 µM)	0.17 µg/mL (≈ 0.395 µM)	0.07 µg/mL (≈ 0.163 µM)
C=C(CC[C@@H](C)[C@H]1CC[C@H]2[C@@H]3C(=O)C=C4C[C@@H](O)CC[C@]4(CO)[C@H]3CC[C@]12C)C(C)C	> 50 µg/mL	4.09 µg/mL (≈ 9.54 µM)	3.34 µg/mL (≈ 7.79 µM)	0.4 µg/mL (≈ 0.933 µM)
C=C(CC[C@@H](C)[C@H]1CC[C@H]2[C@@H]3CC=C4C[C@@H](O)CC[C@]4(CO)[C@H]3CC[C@]12C)C(C)C	1.1 µg/mL (≈ 2.65 µM)	1.76 µg/mL (≈ 4.24 µM)	1.31 µg/mL (≈ 3.16 µM)	0.45 µg/mL (≈ 1.09 µM)
C=C(CC[C@@H](C)[C@H]1CC[C@H]2[C@@H]3C[C@@H](O)[C@@]4(O)C[C@@H](O)CC[C@]4(CO)[C@H]3CC[C@]12C)C(C)C	0.39 µg/mL (≈ 0.869 µM)	0.81 µg/mL (≈ 1.81 µM)	0.93 µg/mL (≈ 2.07 µM)	0.34 µg/mL (≈ 0.758 µM)
C=C(CC[C@@H](C)[C@H]1CC[C@H]2[C@@H]3[C@@H](O)C=C4C[C@@H](O)CC[C@]4(CO)[C@H]3CC[C@]12C)C(C)C	0.58 µg/mL (≈ 1.35 µM)	0.69 µg/mL (≈ 1.6 µM)	0.72 µg/mL (≈ 1.67 µM)	0.24 µg/mL (≈ 0.557 µM)
